From PubChem BioAssay (NCI)
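48-hour exposure; five concentrations; linearly interpolated endpoints. Abbreviation: GI50, concentration required for 50% inhibition of growth. TGI is the concentration that stops growth completely.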

Assays:
Assay in all cases: NCI-60 cell line screen, 48 h
ACHN renal = system: ACHN renal
DU-145 prostate = system: DU-145 prostate
CAKI-1 renal = system: CAKI-1 renal
UACC-257 melanoma = system: UACC-257 melanoma
MCF7 breast = system: MCF7 breast
SF-268 CNS = system: SF-268 CNS
SF-539 CNS = system: SF-539 CNS
SF-295 CNS = system: SF-295 CNS
UO-31 renal = system: UO-31 renal
HOP-92 NSCLC = system: HOP-92 NSCLC
NCI-H460 lung = system: NCI-H460 lung
SK-MEL-5 melanoma = system: SK-MEL-5 melanoma
NCI-H226 lung = system: NCI-H226 lung
NCI/ADR-RES ovarian = system: NCI/ADR-RES ovarian
PC-3 prostate = system: PC-3 prostate
RXF 393 renal = system: RXF 393 renal
SR leukemia = system: SR leukemia
LOX IMVI melanoma = system: LOX IMVI melanoma
M14 melanoma = system: M14 melanoma
SW-620 colon = system: SW-620 colon
T-47D breast = system: T-47D breast
HT29 colon = system: HT29 colon
SN12C renal = system: SN12C renal
A549 NSCLC = system: A549 NSCLC
HS 578T breast = system: HS 578T breast
UACC-62 melanoma = system: UACC-62 melanoma
OVCAR-8 ovarian = system: OVCAR-8 ovarian
KM12 colon = system: KM12 colon
K-562 leukemia = system: K-562 leukemia
NCI-H522 lung = system: NCI-H522 lung
SK-MEL-2 melanoma = system: SK-MEL-2 melanoma
SK-MEL-28 melanoma = system: SK-MEL-28 melanoma
RPMI-8226 leukemia = system: RPMI-8226 leukemia
IGROV1 ovarian = system: IGROV1 ovarian
HCT-15 colon = system: HCT-15 colon
U251 CNS = system: U251 CNS
A498 renal = system: A498 renal
SNB-75 CNS = system: SNB-75 CNS
MDA-MB-435 = system: MDA-MB-435
SK-OV-3 ovarian = system: SK-OV-3 ovarian
OVCAR-4 ovarian = system: OVCAR-4 ovarian
SNB-19 CNS = system: SNB-19 CNS
COLO 205 colon = system: COLO 205 colon
BT-549 breast = system: BT-549 breast
HOP-62 NSCLC = system: HOP-62 NSCLC
HCC-2998 colon = system: HCC-2998 colon
HCT-116 colon = system: HCT-116 colon
786-0 renal = system: 786-0 renal
CCRF-CEM leukemia = system: CCRF-CEM leukemia
EKVX NSCLC = system: EKVX NSCLC
HL-60(TB) leukemia = system: HL-60(TB) leukemia
MOLT-4 leukemia = system: MOLT-4 leukemia
MALME-3M melanoma = system: MALME-3M melanoma
NCI-H23 lung = system: NCI-H23 lung
MDA-MB-231 breast = system: MDA-MB-231 breast
TK-10 renal = system: TK-10 renal
OVCAR-3 ovarian = system: OVCAR-3 ovarian
OVCAR-5 ovarian = system: OVCAR-5 ovarian

Oc1ccc(OCCOc2ccc(O)cc2)cc1
GI50 (ACHN renal): 0.964 µM
TGI (ACHN renal): > 100 µM
GI50 (DU-145 prostate): 2.8 µM
TGI (DU-145 prostate): > 100 µM
GI50 (CAKI-1 renal): 0.987 µM
TGI (CAKI-1 renal): 20.6 µM
GI50 (UACC-257 melanoma): 6.08 µM
TGI (UACC-257 melanoma): > 100 µM
GI50 (MCF7 breast): 4.77 µM
TGI (MCF7 breast): > 100 µM
GI50 (SF-268 CNS): 3.94 µM
TGI (SF-268 CNS): > 100 µM
GI50 (SF-539 CNS): 2.2 µM
TGI (SF-539 CNS): 28.2 µM
GI50 (SF-295 CNS): 2.36 µM
TGI (SF-295 CNS): 16.6 µM
GI50 (UO-31 renal): 1.47 µM
TGI (UO-31 renal): 8.83 µM
GI50 (HOP-92 NSCLC): 3.65 µM
TGI (HOP-92 NSCLC): > 100 µM
GI50 (NCI-H460 lung): 3.57 µM
TGI (NCI-H460 lung): > 100 µM
GI50 (SK-MEL-5 melanoma): 1.5 µM
TGI (SK-MEL-5 melanoma): 4.36 µM
GI50 (NCI-H226 lung): 4.98 µM
TGI (NCI-H226 lung): > 100 µM
GI50 (NCI/ADR-RES ovarian): 3.41 µM
TGI (NCI/ADR-RES ovarian): > 100 µM
GI50 (PC-3 prostate): 2.75 µM
TGI (PC-3 prostate): > 100 µM
GI50 (RXF 393 renal): 6.18 µM
TGI (RXF 393 renal): > 100 µM
GI50 (SR leukemia): 7.41 µM
TGI (SR leukemia): > 100 µM
GI50 (LOX IMVI melanoma): 1.24 µM
TGI (LOX IMVI melanoma): > 100 µM
GI50 (M14 melanoma): 3.03 µM
TGI (M14 melanoma): 23.5 µM
GI50 (SW-620 colon): 3.68 µM
TGI (SW-620 colon): > 100 µM
GI50 (T-47D breast): 4.15 µM
TGI (T-47D breast): > 100 µM
GI50 (HT29 colon): 12.7 µM
TGI (HT29 colon): > 100 µM
GI50 (SN12C renal): 5.72 µM
TGI (SN12C renal): > 100 µM
GI50 (A549 NSCLC): 3.5 µM
TGI (A549 NSCLC): > 100 µM
GI50 (HS 578T breast): > 100 µM
TGI (HS 578T breast): > 100 µM
GI50 (UACC-62 melanoma): 2.45 µM
TGI (UACC-62 melanoma): 13.8 µM
GI50 (OVCAR-8 ovarian): 3.37 µM
TGI (OVCAR-8 ovarian): > 100 µM
GI50 (KM12 colon): 2.26 µM
TGI (KM12 colon): > 100 µM
GI50 (K-562 leukemia): 3.08 µM
TGI (K-562 leukemia): > 100 µM
GI50 (NCI-H522 lung): 1.72 µM
TGI (NCI-H522 lung): 55.9 µM
GI50 (SK-MEL-2 melanoma): 8.26 µM
TGI (SK-MEL-2 melanoma): 82.6 µM
GI50 (SK-MEL-28 melanoma): 88.9 µM
TGI (SK-MEL-28 melanoma): > 100 µM
GI50 (RPMI-8226 leukemia): 9.24 µM
TGI (RPMI-8226 leukemia): > 100 µM
GI50 (IGROV1 ovarian): 5.94 µM
TGI (IGROV1 ovarian): > 100 µM
GI50 (HCT-15 colon): 8.55 µM
TGI (HCT-15 colon): > 100 µM
GI50 (U251 CNS): 4.41 µM
TGI (U251 CNS): > 100 µM
GI50 (A498 renal): 3.17 µM
TGI (A498 renal): > 100 µM
GI50 (SNB-75 CNS): > 100 µM
TGI (SNB-75 CNS): > 100 µM
GI50 (MDA-MB-435): 3.22 µM
TGI (MDA-MB-435): > 100 µM
GI50 (SK-OV-3 ovarian): 99.2 µM
TGI (SK-OV-3 ovarian): > 100 µM
GI50 (OVCAR-4 ovarian): > 100 µM
TGI (OVCAR-4 ovarian): > 100 µM
GI50 (SNB-19 CNS): 27.8 µM
TGI (SNB-19 CNS): > 100 µM
GI50 (COLO 205 colon): 21.3 µM
TGI (COLO 205 colon): 60.6 µM
GI50 (BT-549 breast): 8.08 µM
TGI (BT-549 breast): > 100 µM
GI50 (HOP-62 NSCLC): 8.97 µM
TGI (HOP-62 NSCLC): > 100 µM
GI50 (HCC-2998 colon): 3.36 µM
TGI (HCC-2998 colon): 95.9 µM
GI50 (HCT-116 colon): 6.24 µM
TGI (HCT-116 colon): > 100 µM
GI50 (786-0 renal): 3.26 µM
TGI (786-0 renal): > 100 µM
GI50 (CCRF-CEM leukemia): 2.27 µM
TGI (CCRF-CEM leukemia): > 100 µM
GI50 (EKVX NSCLC): 11.2 µM
TGI (EKVX NSCLC): > 100 µM
GI50 (HL-60(TB) leukemia): 5.22 µM
TGI (HL-60(TB) leukemia): > 100 µM
GI50 (MOLT-4 leukemia): 8.82 µM
TGI (MOLT-4 leukemia): > 100 µM
GI50 (MALME-3M melanoma): 3.69 µM
TGI (MALME-3M melanoma): > 100 µM
GI50 (NCI-H23 lung): 4.5 µM
TGI (NCI-H23 lung): > 100 µM
GI50 (MDA-MB-231 breast): 0.414 µM
TGI (MDA-MB-231 breast): > 100 µM
GI50 (TK-10 renal): 6.65 µM
TGI (TK-10 renal): > 100 µM
GI50 (OVCAR-3 ovarian): 5.67 µM
TGI (OVCAR-3 ovarian): > 100 µM
GI50 (OVCAR-5 ovarian): 10.4 µM
TGI (OVCAR-5 ovarian): > 100 µM
